According to the NIST ThermoML archive (doi:10.1021/acs.jced.7b00106):

Details: Hot wire method

FC(F)(F)/C=C/Cl [(E)-1-chloro-3,3,3-trifluoroprop-1-ene]
Details	thermal conductivity [W/m/K]
343.36 K, 65455 kPa, Liquid	0.09919
343.39 K, 244 kPa, Gas	0.01403
343.41 K, 34281 kPa, Liquid	0.08798
343.43 K, 53923 kPa, Liquid	0.09546
343.44 K, 254 kPa, Gas	0.0143
343.54 K, 43743 kPa, Liquid	0.09133
343.62 K, 34264 kPa, Liquid	0.08757
343.63 K, 177 kPa, Gas	0.01444
343.68 K, 26051 kPa, Liquid	0.08479
343.71 K, 368 kPa, Gas	0.01422
343.72 K, 113 kPa, Gas	0.01433
343.77 K, 19020 kPa, Liquid	0.08131
343.82 K, 116 kPa, Gas	0.01436
343.85 K, 65463 kPa, Liquid	0.09884
343.89 K, 252 kPa, Gas	0.01433
343.9 K, 26047 kPa, Liquid	0.08436
343.93 K, 12786 kPa, Liquid	0.07777
343.93 K, 53925 kPa, Liquid	0.09489
343.97 K, 19023 kPa, Liquid	0.08066
344.06 K, 43740 kPa, Liquid	0.09102
344.06 K, 65472 kPa, Liquid	0.09859
344.08 K, 176 kPa, Gas	0.01441
344.15 K, 365 kPa, Gas	0.0142
344.15 K, 53918 kPa, Liquid	0.09481
344.17 K, 12778 kPa, Liquid	0.07722
344.2 K, 113 kPa, Gas	0.01446
344.28 K, 117 kPa, Gas	0.01435
344.3 K, 43734 kPa, Liquid	0.09086
344.35 K, 250 kPa, Gas	0.01435
344.48 K, 465 kPa, Gas	0.01396
344.56 K, 175 kPa, Gas	0.01444
344.7 K, 114 kPa, Gas	0.01426
344.79 K, 119 kPa, Gas	0.01436
344.84 K, 248 kPa, Gas	0.01433
344.84 K, 463 kPa, Gas	0.01404
344.95 K, 465 kPa, Gas	0.01434
345.08 K, 174 kPa, Gas	0.01445
345.19 K, 360 kPa, Gas	0.01419
345.23 K, 114 kPa, Gas	0.01452
345.31 K, 120 kPa, Gas	0.01441
345.34 K, 463 kPa, Gas	0.01431
345.37 K, 246 kPa, Gas	0.01436
345.44 K, 465 kPa, Gas	0.0143
345.7 K, 358 kPa, Gas	0.01431
345.9 K, 245 kPa, Gas	0.01451
361.58 K, 586 kPa, Fluid (supercritical or subcritical phases)	0.01605
361.67 K, 483 kPa, Fluid (supercritical or subcritical phases)	0.01602
361.68 K, 45282 kPa, Liquid	0.08799
361.69 K, 33938 kPa, Liquid	0.0832
361.69 K, 33954 kPa, Liquid	0.08326
361.7 K, 45281 kPa, Liquid	0.08796
361.73 K, 23489 kPa, Liquid	0.07844
361.74 K, 23503 kPa, Liquid	0.07846
361.77 K, 371 kPa, Fluid (supercritical or subcritical phases)	0.01613
361.79 K, 26408 kPa, Liquid	0.07982
361.8 K, 26407 kPa, Liquid	0.07977
361.83 K, 39898 kPa, Liquid	0.0857
361.83 K, 39907 kPa, Liquid	0.0857
361.88 K, 33923 kPa, Liquid	0.08317
361.89 K, 33938 kPa, Liquid	0.0832
361.92 K, 588 kPa, Fluid (supercritical or subcritical phases)	0.01611
361.93 K, 45278 kPa, Liquid	0.08791
361.94 K, 45270 kPa, Liquid	0.08806
361.98 K, 23477 kPa, Liquid	0.07836
361.98 K, 23492 kPa, Liquid	0.07838
362.01 K, 484 kPa, Fluid (supercritical or subcritical phases)	0.01607
362.05 K, 26376 kPa, Liquid	0.07972
362.05 K, 26398 kPa, Liquid	0.07971
362.05 K, 39862 kPa, Liquid	0.08563
362.08 K, 39906 kPa, Liquid	0.08546
362.14 K, 33914 kPa, Liquid	0.08314
362.14 K, 33942 kPa, Liquid	0.08313
362.16 K, 19344 kPa, Liquid	0.07625
362.18 K, 23467 kPa, Liquid	0.07857
362.19 K, 8420 kPa, Liquid	0.06998
362.2 K, 3010 kPa, Liquid	0.06622
362.2 K, 8440 kPa, Liquid	0.07
362.2 K, 45249 kPa, Liquid	0.0878
362.2 K, 45283 kPa, Liquid	0.08787
362.21 K, 3023 kPa, Liquid	0.06627
362.21 K, 23488 kPa, Liquid	0.07836
362.23 K, 790 kPa, Liquid	0.06431
362.23 K, 805 kPa, Liquid	0.06452
362.24 K, 5520 kPa, Liquid	0.06804
362.24 K, 5538 kPa, Liquid	0.06811
362.26 K, 19400 kPa, Liquid	0.07636
362.27 K, 587 kPa, Fluid (supercritical or subcritical phases)	0.01619
362.3 K, 11679 kPa, Liquid	0.07201
362.3 K, 11690 kPa, Liquid	0.07201
362.31 K, 39856 kPa, Liquid	0.08563
362.31 K, 39891 kPa, Liquid	0.08561
362.32 K, 26374 kPa, Liquid	0.07971
362.32 K, 26405 kPa, Liquid	0.07971
362.37 K, 484 kPa, Fluid (supercritical or subcritical phases)	0.0162
362.41 K, 33911 kPa, Liquid	0.0832
362.42 K, 8419 kPa, Liquid	0.06999
362.42 K, 33938 kPa, Liquid	0.08309
362.44 K, 8433 kPa, Liquid	0.06997
362.46 K, 3010 kPa, Liquid	0.0662
362.47 K, 3011 kPa, Liquid	0.0662
362.47 K, 15419 kPa, Liquid	0.0741
362.47 K, 23460 kPa, Liquid	0.07827
362.48 K, 5516 kPa, Liquid	0.06801
362.48 K, 15443 kPa, Liquid	0.07414
362.48 K, 23476 kPa, Liquid	0.07831
362.48 K, 45268 kPa, Liquid	0.08777
362.48 K, 45271 kPa, Liquid	0.08777
362.49 K, 790 kPa, Liquid	0.06443
362.49 K, 5526 kPa, Liquid	0.06804
362.5 K, 790 kPa, Liquid	0.06446
362.51 K, 370 kPa, Fluid (supercritical or subcritical phases)	0.01626
362.54 K, 11661 kPa, Liquid	0.0719
362.55 K, 11680 kPa, Liquid	0.07196
362.57 K, 39863 kPa, Liquid	0.08553
362.58 K, 39864 kPa, Liquid	0.08552
362.6 K, 26399 kPa, Liquid	0.07968
362.6 K, 26401 kPa, Liquid	0.07967
362.61 K, 19433 kPa, Liquid	0.07636
362.65 K, 15399 kPa, Liquid	0.07408
362.66 K, 587 kPa, Fluid (supercritical or subcritical phases)	0.0163
362.66 K, 15425 kPa, Liquid	0.07408
362.67 K, 8422 kPa, Liquid	0.06992
362.68 K, 8413 kPa, Liquid	0.06988
362.69 K, 33907 kPa, Liquid	0.08302
362.69 K, 33929 kPa, Liquid	0.08306
362.7 K, 19433 kPa, Liquid	0.07633
362.74 K, 5502 kPa, Liquid	0.06792
362.75 K, 3008 kPa, Liquid	0.06615
362.75 K, 3026 kPa, Liquid	0.06618
362.75 K, 5530 kPa, Liquid	0.06798
362.75 K, 23458 kPa, Liquid	0.07811
362.75 K, 23492 kPa, Liquid	0.07827
362.75 K, 45227 kPa, Liquid	0.08785
362.76 K, 484 kPa, Fluid (supercritical or subcritical phases)	0.01624
362.76 K, 45255 kPa, Liquid	0.08771
362.77 K, 783 kPa, Liquid	0.06438
362.77 K, 802 kPa, Liquid	0.06442
362.8 K, 11664 kPa, Liquid	0.07188
362.81 K, 11670 kPa, Liquid	0.07191
362.83 K, 15386 kPa, Liquid	0.07403
362.86 K, 39872 kPa, Liquid	0.08551
362.87 K, 15400 kPa, Liquid	0.07403
362.87 K, 39835 kPa, Liquid	0.08548
362.89 K, 367 kPa, Fluid (supercritical or subcritical phases)	0.01631
362.89 K, 26375 kPa, Liquid	0.07958
